The values that follow come from ChEMBL document CHEMBL3875215, “Neuritogenic activity of bi-functional bis-tryptoline triazole” (Bioorg Med Chem, 2017).

Data set [1] in a line: Antioxidant activity assessed as inhibition of DPPH radical at 100 uM incubated for 30 mins under dark condition relative to control. The format is functional. A general note: Loss of DPPH colour is used to gauge radical scavenging.
Data set [2] concerns the target T1, Beta-secretase 1 (Homo sapiens, UniProt P56817). The experiment in a line: Inhibition of BACE1 (unknown origin) at 25 uM using beta-secretase substrate 4 after 30 mins by fluorescence spectrophotometric method relative to control.
Data set [3] in a line: Cytotoxicity against mouse P19 derived neurons assessed as cell viability at 10000 nM after 18 hrs by XTT assay relative to control. The class given is toxicity. As to conditions: read-out: Activity. For orientation: Tetrazolium dyes change colour on reduction, which living cells bring about.
Data set [4] can be described thus: Cytotoxicity against mouse P19 derived neurons assessed as cell viability at 10 nM after 18 hrs by XTT assay relative to control. Conditions: read-out: Activity. The class given is toxicity.
Data set [5] deals with P19. The experiment in a line: Neuritogenic activity in mouse P19 derived neurons assessed as increase in neurite length at 1 nM after 18 hrs by phase contrast microscopic method relative to control. The format is functional.
Data set [6] is described as follows: Cytotoxicity against mouse P19 derived neurons assessed as cell viability at 1 nM after 18 hrs by XTT assay relative to control. As to conditions: read-out: Activity. The format is toxicity.
Data set [7] has as its system P19. The experiment in a line: Neuritogenic activity in mouse P19 derived neurons assessed as increase in neurite number at 1 nM after 18 hrs by phase contrast microscopic method relative to control. The class given is functional.
A short description of data set [8]: Cytotoxicity against mouse P19 derived neurons assessed as cell viability at 100 nM after 18 hrs by XTT assay relative to control. The class given is toxicity. As to conditions: read-out: Activity.
The nature of data set [9]: Cytotoxicity against mouse P19 derived neurons assessed as cell viability at 1000 nM after 18 hrs by XTT assay relative to control. As to conditions: read-out: Activity. The class given is toxicity.
The target in data set [10] is T2, Amyloid-beta precursor protein (Homo sapiens, UniProt P05067). The experiment in a line: Inhibition of human amyloid beta (1 to 42) aggregation at 100 uM incubated for 48 hrs under dark condition by ThT fluorescence assay relative to control.
Data set [11] addresses T2, Amyloid-beta precursor protein. The experiment in a line: Inhibition of human amyloid beta (1 to 42) aggregation incubated for 48 hrs under dark condition by ThT fluorescence assay.
A further data set deals with SH-SY5Y. The experiment in a line: Neuroprotective activity against aggregated amyloid beta-induced toxicity in human SH-SY5Y cells assessed as increase in cell viability at 1 to 10 uM preincubated for 2 hrs followed by aggregated amyloid beta addition measured after 24 hrs by MTT assay. The class given is functional, cell-based.
Data set [12] addresses T1, Beta-secretase 1. The experiment in a line: Inhibition of BACE1 (unknown origin) using beta-secretase substrate 4 after 30 mins by fluorescence spectrophotometric method.
The target in data set [13] is T2, Amyloid-beta precursor protein. The experiment in a line: Inhibition of amyloid beta (1 to 42) aggregation (unknown origin).

Calls of active or inactive are those of the source. The calls are words filed in the database; no cut-off is given here.

T2 sequence (P05067 whole entry): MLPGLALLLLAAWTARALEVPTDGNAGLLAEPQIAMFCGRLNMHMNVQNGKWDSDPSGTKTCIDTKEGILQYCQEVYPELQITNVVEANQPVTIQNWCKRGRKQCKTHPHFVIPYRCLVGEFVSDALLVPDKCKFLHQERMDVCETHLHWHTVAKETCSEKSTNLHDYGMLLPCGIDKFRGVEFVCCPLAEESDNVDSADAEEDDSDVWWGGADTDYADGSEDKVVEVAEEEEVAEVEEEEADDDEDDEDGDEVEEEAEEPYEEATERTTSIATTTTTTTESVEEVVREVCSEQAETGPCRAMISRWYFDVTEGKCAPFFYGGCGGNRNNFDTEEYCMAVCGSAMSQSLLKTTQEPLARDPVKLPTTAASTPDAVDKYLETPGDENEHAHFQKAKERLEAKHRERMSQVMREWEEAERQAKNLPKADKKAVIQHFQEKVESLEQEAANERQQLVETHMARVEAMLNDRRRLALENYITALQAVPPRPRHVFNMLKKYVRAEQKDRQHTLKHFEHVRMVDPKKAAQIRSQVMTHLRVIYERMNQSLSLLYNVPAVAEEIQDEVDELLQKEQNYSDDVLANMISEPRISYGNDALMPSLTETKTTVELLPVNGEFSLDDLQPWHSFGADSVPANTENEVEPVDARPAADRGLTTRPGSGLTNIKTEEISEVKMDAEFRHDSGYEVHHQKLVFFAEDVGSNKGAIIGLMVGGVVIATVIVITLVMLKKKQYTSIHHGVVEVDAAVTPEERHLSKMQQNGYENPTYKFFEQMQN
T1 sequence (P56817 whole entry): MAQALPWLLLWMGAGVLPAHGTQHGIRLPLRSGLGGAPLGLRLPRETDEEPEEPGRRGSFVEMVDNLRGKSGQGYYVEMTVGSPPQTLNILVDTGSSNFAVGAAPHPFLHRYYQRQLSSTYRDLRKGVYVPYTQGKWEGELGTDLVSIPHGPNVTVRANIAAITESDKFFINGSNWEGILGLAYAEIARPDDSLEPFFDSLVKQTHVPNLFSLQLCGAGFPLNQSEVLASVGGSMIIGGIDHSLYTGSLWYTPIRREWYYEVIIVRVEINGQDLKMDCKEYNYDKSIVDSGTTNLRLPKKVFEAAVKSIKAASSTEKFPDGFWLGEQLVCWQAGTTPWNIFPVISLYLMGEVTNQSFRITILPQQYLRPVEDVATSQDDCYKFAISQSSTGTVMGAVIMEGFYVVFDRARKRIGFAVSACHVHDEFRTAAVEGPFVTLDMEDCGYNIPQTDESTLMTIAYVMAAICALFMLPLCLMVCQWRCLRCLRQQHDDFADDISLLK

What is called inhibition is the drop in the measured response relative to a control, in per cent. On to `N[C@@H](Cc1c[nH]c2ccccc12)Cn1cc(-c2ccc(Cl)c(Cl)c2)nn1`, for which the inhibition in data set [1] amounted to 0%; on Beta-secretase 1 [2] it was 61.5%; in [10], 67.6%. Also, the viability at 18 h, 10 µM in data set [3] is 93.8%. For the same compound, the viability at 18 h, 0.01 µM in data set [4] was found to be 128%. Moreover, the Activity in the data set on P19 [5] was 84.13%; in the data set on P19 [7] it was 118.7%. The viability at 18 h, 0.001 µM in [6] was 139%. The viability at 18 h, 0.1 µM in [8] is 116%. Further, the viability at 18 h, 1 µM in [9] turned out to be 108%.

As for `COC1=C2C[C@@H](C)C[C@H](OC)[C@H](O)[C@@H](C)/C=C(\C)[C@H](OC(N)=O)[C@@H](OC)/C=C\C=C(/C)C(=O)NC(=CC1=O)C2=O` [GELDANAMYCIN], the Activity in the data set with P19 [5] worked out at 59.14%; in the data set with P19 [7], 55.22%.

In general, IC50 refers to the midpoint of a concentration-inhibition curve. High values mean weaker potency, low ones greater potency. Consider `OC[C@@H]1Cc2c([nH]c3ccccc23)CN1Cc1cn(C[C@@H]2Cc3c([nH]c4ccccc34)CN2)nn1`, for which the inhibition in data set [1] turned out to be 8.46%; against Beta-secretase 1 [2] it was 67.5%; in data set [10], 80.2%. Further, the IC50 is 66.4 µM in [11] and 16.7 µM on Beta-secretase 1 [12]. In addition, in data set [3], the viability at 18 h, 10 µM came to 124%. Further, the viability at 18 h, 0.01 µM in [4] was 131%. Besides, the Activity is recorded as 93.25% in the data set on P19 [5] and 136.09% in the data set with P19 [7]. In addition, the viability at 18 h, 0.001 µM in data set [6] came out at 131%. The outcome with SH-SY5Y was Active. Also, the viability at 18 h, 0.1 µM in data set [8] turned out to be 129%. The viability at 18 h, 1 µM in data set [9] amounted to 131%.

Consider `O=c1c(O)c(-c2ccc(O)c(O)c2)oc2cc(O)cc(O)c12` [QUERCETIN], for which the IC50 in data set [13] stood at 7.94 µM. The Activity came out at 58.37% in the data set with P19 [5] and 40.43% in the data set on P19 [7].

For the compound `O=C(/C=C/c1ccc(O)c(O)c1)NCc1cn(C[C@@H]2Cc3c([nH]c4ccccc34)CN2)nn1`, the inhibition turned out to be 92.3% in data set [1], 21.7% against Beta-secretase 1 [2] and 84.1% in [10]. The viability at 18 h, 10 µM in data set [3] was determined as 140%. Moreover, in data set [4], the viability at 18 h, 0.01 µM was 139%. Also, the Activity in the data set with P19 [5] stood at 57.54%; with P19 [7] it was 123.04%. The viability at 18 h, 0.001 µM in [6] stood at 130%. The IC50 against Beta-secretase 1 [12] was above 50 µM. For the same compound, the viability at 18 h, 0.1 µM in data set [8] was 125%. In data set [9], the viability at 18 h, 1 µM is 120%.

As to `N[C@@H](Cc1c[nH]c2ccccc12)Cn1cc(CNC(=O)/C=C/c2ccc(O)c(O)c2)nn1`, the inhibition amounted to 50.6% in [1], 40% against Beta-secretase 1 [2] and 81.5% in data set [10]. In addition, the viability at 18 h, 10 µM in [3] is 140%. The viability at 18 h, 0.01 µM in [4] amounted to 130%. Besides, the Activity stood at 62.21% with P19 [5] and 131.74% with P19 [7]. The viability at 18 h, 0.001 µM in data set [6] was 133%. Also, the viability at 18 h, 0.1 µM in data set [8] was 135%. For the same compound, the viability at 18 h, 1 µM in data set [9] came out at 129%.
